From patent US12590099B2, “Inhibitors of histone deacetylase useful for the treatment or prevention of HIV infection” (Merck Sharp & Dohme LLC, priority 2018, dated 2026)
Like-named read-outs stand apart in the source and are kept apart here.

Assays:
[1] = target: T1, Recombinant human HDAC3/SMRT heterodimer (Homo sapiens, UniProt O15379); test: Human HDAC enzyme inhibitor Fluor-de-Lys assay, HDAC3/SMRT; assay type: biochemical; conditions: recombinant human HDAC3/SMRT, Fluor-de-Lys assay
T1 construct: FLAG (C); made in house

Recombinant human HDAC1 = target: T2, Recombinant human HDAC1 (Homo sapiens, UniProt Q13547); test: Human HDAC enzyme inhibitor Fluor-de-Lys assay, HDAC1; assay type: biochemical; conditions: recombinant human HDAC1, Fluor-de-Lys assay
T2 construct: FLAG (C); made in house
Method: (§1) Human HDAC Enzyme Inhibitor Fluor-De-Lys Assay
(§2) Recombinant human HDAC8 (BML-SE145-0100) and HDAC10 (BML-SE559-0050) enzymes, HDAC substrates BML-KI104 and BML-KI178, and HDAC developer solutions BML-KI105 and BML-KI176 were purchased from Enzo Life Sciences. […] HDAC inhibitor suberoylanilide hydroxamic acid (SAHA) was obtained from Indofine and trichostatin A (TSA) was obtained from Sigma-Aldrich.
(§3) Recombinant human HDAC1, HDAC2, and HDAC3/SMRT heterodimer were prepared by Merck Research Laboratories. […] The eluted protein was then passed over an anti-HDAC1 immunoaffinity column to remove any complexes containing HDAC1. […]
(§4) The histone deacetylase activities of HDAC1, HDAC2, HDAC3, HDAC6, and HDAC8 were measured in modified FLUOR DE LYS assays in 384-well format. In this assay, HDAC enzymes are initially incubated with an ε-acetyl (or -trifluoroacetyl)-L-lysine-containing substrate with a C-terminal amide having aminomethylcoumarin as the amine component. HDACs cleave the ε-acetyl group, rendering the resulting product susceptible to AMC cleavage by trypsin. The released AMC is then detected by its fluorescence.
(§5) The HDAC3/SMRT assay employed buffer B, consisting of 20 mM HEPES, pH 8.0, 1 mM MgCl2, 50 mM NaCl, 2.7 mM KCl, 0.05% BSA, 0.005% Tween 20, and 10 μM IP4. […] The HDAC8 assay employed buffer D, consisting of 20 mM HEPES, pH 8.0, 1 mM MgCl2, 100 mM NaCl, 20 mM KCl, 0.10% n-octyl-β-D-glucoside (Anatrace) and 0.05% BSA. All steps were performed at room temperature (23° C.). The assay was performed by pre-incubating serial dilutions of test compounds with the target HDAC prior to initiation with substrate. Each compound was titrated in a 10-point dose response, using a 1:3 fold dilution scheme, with 0.15 ul of solution added by ECH0555 to the plate, followed by the addition of 20 μl of the appropriate HDAC isoform diluted in appropriate assay buffer. […] Final conditions used for each assay were: 1. HDAC 1, 0.3 nM total enzyme, 20 μM substrate BML-KI104; 2. […] HDAC 3/SMRT, 0.3 nM total enzyme, 20 μM substrate BML-KI104; 4. […] The reactions were stopped and developed by addition of 30 ul of HDAC developer solution containing a saturating level of HDAC inhibitor as follows: 1.

Recombinant human HDAC8 = target: T3, Recombinant human HDAC8 (Homo sapiens, UniProt Q9BY41); test: Human HDAC enzyme inhibitor Fluor-de-Lys assay, HDAC8; assay type: biochemical
T3 construct: purchased Enzo Life Sciences BML-SE145-0100
T3 sequence (Q9BY41 1-377): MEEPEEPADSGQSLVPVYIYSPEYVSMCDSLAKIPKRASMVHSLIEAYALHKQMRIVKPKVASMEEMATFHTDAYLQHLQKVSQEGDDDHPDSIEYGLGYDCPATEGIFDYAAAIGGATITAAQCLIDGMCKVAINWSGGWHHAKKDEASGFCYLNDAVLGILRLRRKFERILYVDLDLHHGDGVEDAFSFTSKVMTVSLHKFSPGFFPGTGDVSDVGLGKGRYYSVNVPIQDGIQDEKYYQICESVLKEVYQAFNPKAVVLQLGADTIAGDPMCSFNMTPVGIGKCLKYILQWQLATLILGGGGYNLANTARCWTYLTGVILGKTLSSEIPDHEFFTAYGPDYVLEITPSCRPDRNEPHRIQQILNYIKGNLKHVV

Recombinant human HDAC2 = target: T4, Recombinant human HDAC2 (Homo sapiens, UniProt Q92769); test: Human HDAC enzyme inhibitor Fluor-de-Lys assay, HDAC2; assay type: biochemical
T4 construct: Full length human HDAC2-FLAG was expressed in baculovirus infected Sf9 cells; FLAG (C); made in house; host or cells: Sf9 (baculovirus)
Method: as §1, §2, §3, §4, §5

KARN cells (Jurkat 2C4) = test: cells; assay type: cell-based; conditions: Homo sapiens, Jurkat
Method in brief: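 Luminescence (Steady-Glo, 10 min, room temperature) measured next day in KARN Jurkat 2C4 cells given compounds at up to 40 μM final with 0.4% DMSO. Percent activation normalised to DMSO (0%) and 2 μM SAHA (100%), fitted by 4-parameter curve.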

HDAC6 = target: T5, HDAC6 (Homo sapiens, UniProt Q9UBN7); test: Human HDAC enzyme inhibitor Fluor-de-Lys assay, HDAC6; assay type: biochemical
T5 sequence (Q9UBN7 1-1215): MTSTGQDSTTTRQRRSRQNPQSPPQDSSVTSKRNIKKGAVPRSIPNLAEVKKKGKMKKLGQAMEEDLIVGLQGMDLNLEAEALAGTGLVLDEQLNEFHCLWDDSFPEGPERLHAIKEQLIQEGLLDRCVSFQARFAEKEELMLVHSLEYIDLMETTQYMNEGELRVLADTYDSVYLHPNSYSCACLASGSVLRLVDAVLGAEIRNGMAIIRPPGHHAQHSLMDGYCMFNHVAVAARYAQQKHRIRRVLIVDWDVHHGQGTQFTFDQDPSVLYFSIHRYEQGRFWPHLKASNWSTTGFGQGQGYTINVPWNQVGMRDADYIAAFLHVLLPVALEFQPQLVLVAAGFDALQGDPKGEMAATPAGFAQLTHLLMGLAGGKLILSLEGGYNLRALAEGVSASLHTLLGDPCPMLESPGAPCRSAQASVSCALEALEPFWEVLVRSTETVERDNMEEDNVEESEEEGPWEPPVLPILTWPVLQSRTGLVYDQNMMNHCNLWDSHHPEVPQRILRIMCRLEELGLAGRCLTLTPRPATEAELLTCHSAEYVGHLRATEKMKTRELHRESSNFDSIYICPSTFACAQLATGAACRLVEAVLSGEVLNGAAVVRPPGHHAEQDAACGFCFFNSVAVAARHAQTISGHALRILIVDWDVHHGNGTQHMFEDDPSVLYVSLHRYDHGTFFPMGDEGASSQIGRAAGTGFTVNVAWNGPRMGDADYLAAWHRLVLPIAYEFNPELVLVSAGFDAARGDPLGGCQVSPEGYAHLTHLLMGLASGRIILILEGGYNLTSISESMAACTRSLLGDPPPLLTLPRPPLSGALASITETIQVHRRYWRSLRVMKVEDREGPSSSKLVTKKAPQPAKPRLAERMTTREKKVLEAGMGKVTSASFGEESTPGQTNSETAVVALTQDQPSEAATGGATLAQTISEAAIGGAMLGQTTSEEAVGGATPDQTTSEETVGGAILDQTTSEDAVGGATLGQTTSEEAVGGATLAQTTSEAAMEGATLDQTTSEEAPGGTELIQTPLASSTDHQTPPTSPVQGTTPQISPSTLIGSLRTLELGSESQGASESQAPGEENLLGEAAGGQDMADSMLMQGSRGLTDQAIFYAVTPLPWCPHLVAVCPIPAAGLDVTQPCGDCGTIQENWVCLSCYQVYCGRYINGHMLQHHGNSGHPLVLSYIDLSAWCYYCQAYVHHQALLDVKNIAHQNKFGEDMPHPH

[2] = recombinant human HDAC8, Fluor-de-Lys assay
[3] = recombinant human HDAC2, Fluor-de-Lys assay
[4] = read-out: Karn EC50 (nM) 0.1% NHS, 0.1% normal human serum, luciferase induction, 100% = 2 μM SAHA
[5] = read-out: Karn EC50 (nM) 5% NHS, 5% normal human serum, luciferase induction, 100% = 2 μM SAHA
[6] = read-out: Karn EC50 (nM) 0.1% NHS, 0.1% normal human serum
[7] = read-out: Karn EC50 (nM) 5% NHS, 5% normal human serum

T4 sequence (Q92769 whole entry): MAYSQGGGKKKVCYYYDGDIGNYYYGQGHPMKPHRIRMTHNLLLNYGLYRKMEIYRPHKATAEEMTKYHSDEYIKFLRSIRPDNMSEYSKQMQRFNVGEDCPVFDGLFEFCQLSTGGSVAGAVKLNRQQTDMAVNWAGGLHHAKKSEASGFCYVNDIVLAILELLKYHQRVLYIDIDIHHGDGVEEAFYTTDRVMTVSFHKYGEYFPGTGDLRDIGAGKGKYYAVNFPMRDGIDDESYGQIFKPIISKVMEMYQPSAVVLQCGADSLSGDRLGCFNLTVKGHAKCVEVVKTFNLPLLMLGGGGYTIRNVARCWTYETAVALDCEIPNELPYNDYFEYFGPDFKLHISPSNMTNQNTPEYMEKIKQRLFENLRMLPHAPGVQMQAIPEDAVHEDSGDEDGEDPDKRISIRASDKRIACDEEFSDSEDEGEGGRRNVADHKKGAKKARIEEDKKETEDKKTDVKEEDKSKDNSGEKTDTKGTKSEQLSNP
T2 sequence (Q13547 whole entry): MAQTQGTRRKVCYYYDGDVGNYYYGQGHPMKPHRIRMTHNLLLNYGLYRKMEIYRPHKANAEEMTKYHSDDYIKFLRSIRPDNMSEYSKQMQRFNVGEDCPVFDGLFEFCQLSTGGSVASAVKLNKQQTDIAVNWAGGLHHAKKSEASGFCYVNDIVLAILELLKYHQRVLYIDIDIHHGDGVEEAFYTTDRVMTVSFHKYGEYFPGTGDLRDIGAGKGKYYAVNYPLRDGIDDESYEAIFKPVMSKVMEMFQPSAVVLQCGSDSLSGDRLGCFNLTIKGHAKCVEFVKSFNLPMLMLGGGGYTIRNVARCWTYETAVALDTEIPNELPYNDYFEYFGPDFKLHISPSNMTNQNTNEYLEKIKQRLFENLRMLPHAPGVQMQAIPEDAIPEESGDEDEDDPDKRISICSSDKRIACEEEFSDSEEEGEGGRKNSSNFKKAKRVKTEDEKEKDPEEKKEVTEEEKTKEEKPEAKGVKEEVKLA
T1 sequence (O15379 whole entry): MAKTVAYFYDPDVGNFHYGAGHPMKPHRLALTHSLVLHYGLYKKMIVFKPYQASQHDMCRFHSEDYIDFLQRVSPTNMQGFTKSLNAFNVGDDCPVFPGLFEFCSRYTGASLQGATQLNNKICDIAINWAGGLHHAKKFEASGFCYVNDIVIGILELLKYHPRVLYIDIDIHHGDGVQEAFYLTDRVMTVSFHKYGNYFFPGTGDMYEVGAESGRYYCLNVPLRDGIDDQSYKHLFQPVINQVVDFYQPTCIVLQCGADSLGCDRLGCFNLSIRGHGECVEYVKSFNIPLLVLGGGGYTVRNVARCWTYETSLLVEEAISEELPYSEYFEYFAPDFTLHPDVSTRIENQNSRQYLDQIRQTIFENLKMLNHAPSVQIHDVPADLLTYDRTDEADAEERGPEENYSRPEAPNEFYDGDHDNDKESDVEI
T1 sequence (Q9Y618 1-899 partner limits assumed): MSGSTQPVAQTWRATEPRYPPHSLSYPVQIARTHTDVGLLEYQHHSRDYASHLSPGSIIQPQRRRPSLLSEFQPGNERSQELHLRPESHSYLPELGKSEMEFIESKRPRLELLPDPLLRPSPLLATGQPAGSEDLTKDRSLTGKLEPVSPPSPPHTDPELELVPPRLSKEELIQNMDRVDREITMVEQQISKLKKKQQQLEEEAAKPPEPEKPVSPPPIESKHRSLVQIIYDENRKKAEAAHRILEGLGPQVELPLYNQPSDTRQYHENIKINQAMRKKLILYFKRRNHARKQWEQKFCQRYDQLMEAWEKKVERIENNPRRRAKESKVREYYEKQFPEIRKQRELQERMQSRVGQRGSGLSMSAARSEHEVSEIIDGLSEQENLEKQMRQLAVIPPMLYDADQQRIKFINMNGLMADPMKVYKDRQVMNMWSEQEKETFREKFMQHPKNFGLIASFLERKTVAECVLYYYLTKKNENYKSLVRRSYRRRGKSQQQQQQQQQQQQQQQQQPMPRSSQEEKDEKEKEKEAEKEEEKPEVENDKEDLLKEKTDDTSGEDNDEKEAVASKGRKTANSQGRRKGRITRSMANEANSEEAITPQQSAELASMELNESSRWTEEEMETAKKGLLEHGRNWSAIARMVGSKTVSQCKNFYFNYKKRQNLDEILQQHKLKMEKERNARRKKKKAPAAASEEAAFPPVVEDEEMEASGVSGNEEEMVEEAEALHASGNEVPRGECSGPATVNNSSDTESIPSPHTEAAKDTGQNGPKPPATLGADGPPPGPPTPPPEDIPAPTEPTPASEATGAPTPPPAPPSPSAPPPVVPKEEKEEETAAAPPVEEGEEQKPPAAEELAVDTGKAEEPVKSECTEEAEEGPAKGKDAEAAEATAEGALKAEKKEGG

| SMILES | IC50 [1] [nM] | IC50 (Recombinant human HDAC1) [nM] | IC50 (Recombinant human HDAC8; [2]) [nM] | IC50 (Recombinant human HDAC2; [3]) [nM] | EC50 (KARN cells (Jurkat 2C4); [4]) [nM] | EC50 (KARN cells (Jurkat 2C4); [5]) [nM] | IC50 (Recombinant human HDAC8) [nM] | IC50 (Recombinant human HDAC2) [nM] | EC50 (KARN cells (Jurkat 2C4); [6]) [nM] | EC50 (KARN cells (Jurkat 2C4); [7]) [nM] | IC50 (HDAC6) [nM] | IC50 (HDAC6; HDAC6, Fluor-de-Lys assay) [nM] |
| --- | --- | --- | --- | --- | --- | --- | --- | --- | --- | --- | --- | --- |
| CCC(=O)CCCCC[C@H](NC(=O)C1NC(=O)CC12CN(C)C2)c1nnc(-c2cc3ccccc3nc2OC)o1 (some centres unmarked) [Compound 309] | 7.19 | 6.91 | 24000 | 19.3 | 1350 | 1920 | – | – | – | – | – | – |
| CCC(=O)CCCCC[C@H](NC(=O)[C@H]1CC12CCN(CC)CC2)c1ncc(-c2cc3cccnc3cc2OC)o1 [Compound 169] | – | – | – | – | – | – | 7580 | 2.2 | 91 | 78 | 83 | – |
| CCC(=O)CCCCC[C@H](NC(=O)[C@H]1CC12CCN(C)CC2)c1ncc(-c2ccn3ncnc3c2)[nH]1 [Compound 267] | – | 46.7 | 11600 | 170 | – | – | – | – | – | – | – | 6370 |
| CCC(=O)CCCCC[C@H](NC(=O)[C@H]1CC12CCN(C)CC2)c1ncc(-c2ccc3cnc(Cl)cc3c2)[nH]1 [Compound 351] | 1.32 | 1.57 | 5830 | 7.1 | – | – | – | – | – | – | – | 1470 |
| CCC(=O)CCCCC[C@H](NC(=O)C1NC(=O)CC12CNC2)c1nnc(-c2cc3ccccc3nc2OC)o1 (some centres unmarked) [Compound 304] | 3.23 | 3.59 | 20800 | 8 | 17300 | – | – | – | – | – | – | – |
| CCC(=O)CCCCC[C@H](NC(=O)C1NC(=O)CC12CN(C(=O)OC(C)(C)C)C2)c1nnc(-c2cc3ccccc3nc2OC)o1 (some centres unmarked) [Compound 302] | 37.6 | 49.4 | > 45000 | 121 | 4460 | 7430 | – | – | – | – | – | – |
| CCC(=O)CCCCC[C@H](NC(=O)[C@H]1CC[C@]2(CC1)OC(=O)c1ncccc12)c1ncc(-c2ccccc2)[nH]1 [Compound 377] | 6.9 | 47.1 | 3010 | 232 | – | – | – | – | – | – | – | 8290 |
| CCC(=O)CCCCC[C@H](NC(=O)[C@@H]1C[C@@]12CCN(C)C2)c1ncc(-c2cc3ccccc3nc2OC)[nH]1 [Compound 330] | – | – | 13700 | – | 309 | 1150 | – | – | – | – | – | 632 |
| CCC(=O)CCCCC[C@H](NC(=O)[C@H]1CC12CCN(C)CC2)c1ncc(-c2cc3ccc(Cl)cc3nc2OC)[nH]1 [Compound 177] | – | – | – | – | – | – | 2560 | – | 22 | 41 | 341 | – |
| CCC(=O)CCCCC[C@H](NC(=O)[C@H]1CC12CCN(Cc1ccc(OC)cc1)CC2)c1ncc(-c2cc3ccccc3nc2OC)[nH]1 [Compound 295] | – | – | 3230 | – | 113 | 180 | – | – | – | – | – | 973 |
| CCC(=O)CCCCC[C@H](NC(=O)C1CC12CCN(CC)CC2)c1nc(-c2ccc(F)cc2)[nH]c1-c1cccc(OC)c1 (some centres unmarked) [Compound 246] | 155 | 177 | – | 769 | 1940 | 3770 | – | – | – | – | – | – |
| CCC(=O)CCCCC[C@H](NC(=O)[C@H]1CC12CCN(CC)CC2)c1ncc(-c2cc3cccnc3cc2OC)[nH]1 [Compound 181] | – | – | – | – | – | – | 5250 | – | 52 | 63 | 144 | – |
| CCC(=O)CCCCC[C@H](NC(=O)[C@H]1CC12CCN(C)CC2)c1ncc(-c2cc3ncccc3nc2OC)[nH]1 [Compound 142] | – | – | – | – | – | – | 5120 | – | 311 | 544 | 3670 | – |
| CCC(=O)CCCCC[C@H](NC(=O)[C@H]1CC12CCN(CC)CC2)c1ncc(-c2cc3ccccc3nc2O)[nH]1 [Compound 291] | – | – | > 15000 | – | 192 | 295 | – | – | – | – | – | 741 |
| CCC(=O)CCCCC[C@H](NC(=O)[C@H]1CC12CCN(CC)CC2)c1ncc(-c2ccc(C)cc2OC)[nH]1 [Compound 208] | – | – | – | – | – | – | 1450 | – | 53 | 63 | 756 | – |
| CCC(=O)CCCCC[C@H](NC(=O)C1CC2(CCN(CC)CC2)C1)c1ncc(-c2cc3ccccc3nc2OC)[nH]1 [Compound 278] | – | – | 980 | – | 166 | 1000 | – | – | – | – | – | 479 |
| CCC(=O)CCCCC[C@H](NC(=O)[C@H]1CC12CCN(CC)CC2)c1ncc(-c2ccc3c(=O)n(CC)ccc3c2)[nH]1 [Compound 92] | – | – | – | – | – | – | 6260 | – | 52 | 56 | 2980 | – |
